Measured values published in patent publication US9339668B2, “Extract of aerial parts of oats harvested before ear emergence” (priority 2008, dated 2016).

System: Prostaglandin PG6KF1α production in stimulated human keratinocyte
Assay: Production of prostaglandin PG6KF1α induced at the keratinocyte by calcium ionophore A23187
Type: cell-based
Details: 10 μg/ml
Source text: Principle: The keratinocyte, the most represented cell at the epidermis, plays a significant role in initiating and modulating inflammatory reactions of the skin. With the model it is possible to determine in vitro the capabilities of various molecules of modulating the production of mediators stemming from the metabolism of arachidonic acid. Prostaglandin PG6KF1α is a stable metabolite of prostacyclin PGI2, a major metabolite produced by the stimulated human keratinocyte. An acetone extract of aerial parts of oats harvested before ear emergence and its fractions were evaluated on the production of this prostaglandin induced at the keratinocyte by the calcium ionophore A23187 (stimulating the cascade of arachidonic acid).

Question: For `O=c1cc(-c2ccc(O)c(O)c2)oc2cc(O)c([C@@H]3O[C@H](CO)[C@@H](O)[C@H](O)[C@H]3OC3OC[C@@H](O)[C@@H](O)[C@@H]3O)c(O)c12` (stereo partly shown) [isoorientin-2″-O-arabinosyl], which “inhibition of PG6KF1α production” value is on record?
Answer: Its value is 55%.
